{"source": "patent US7314857B2", "about": "“Synergistic antimicrobial compositions and methods of inhibiting biofilm formation” (Kane Biotech Inc., priority 2003, dated 2008)", "assay_in_all_cases": "Growth on urinary catheter segments coated with TDMAC plus composition (roll plate)", "key": {"[1]": {"tested_on": "Pseudomonas aeruginosa", "format": "cell-based", "protocol": "(§1) Clear vinyl catheter segments (3 cm sections of tubing) that had been preheated (incubated in sterile water at 65° C. overnight) were coated in 5% TDMAC in ethanol for an hour at room temperature. The catheter segments were vigorously washed with sterile water and air-dried. The segments were then immersed in ethanol and coating solution (1000 μg OT+100 μg PS+100 μg EDTA/ml of water) for 2 hours at −20° C. In addition, a few catheter segments were immersed in coating solution alone for 2 hours at −20° C. All the segments were air dried and immersed in a tryptic soy broth culture of Pseudomonas aeruginosa, Klebsiella pneumoniae and Staphylococcus epidermidis for 3 hours at 37° C. The catheter segments were washed 3 times in 3 changes of sterile saline and rolled on tryptic soy agar plates. The plates were incubated overnight at 37° C. and the colonies were counted."}, "[2]": {"tested_on": "Klebsiella pneumoniae", "format": "cell-based", "protocol": "as §1"}, "[3]": {"tested_on": "Staph. epidermidis", "format": "cell-based, Staphylococcus epidermidis", "protocol": "as §1"}, "[4]": {"conditions": "coated vinyl catheter segments vs uncoated control, coating at −20° C."}, "[5]": {"conditions": "coated vinyl catheter segments, coating 2 hours at −20° C., 3 hours in culture at 37° C., CFU per millimeter of catheter tubing"}}}
{"smiles": "CCCCCCCCCCCC[N+](C)(CCCCCCCCCCCC)CCCCCCCCCCCC.[Cl-]", "note": "[TDMAC, Tridodecyl Methyl Ammonium Chloride]", "values": [{"measurement": "% Inhibition", "setting": "[1]; [4]", "value": 12, "unit": "%"}, {"measurement": "Viable Counts (CFU/mM)", "setting": "[1]; [5]", "value": "18.8 ± 4.6", "unit": "CFU/mM"}, {"measurement": "% Inhibition", "setting": "[2]; [4]", "value": 0, "unit": "%"}, {"measurement": "Viable Counts (CFU/mM)", "setting": "[2]; [5]", "value": "4.3 ± 1.3", "unit": "CFU/mM"}, {"measurement": "% Inhibition", "setting": "[3]; [4]", "value": 0, "unit": "%"}, {"measurement": "Viable Counts (CFU/mM)", "setting": "[3]; [5]", "value": "20.4 ± 7.7", "unit": "CFU/mM"}]}
